Results: patent EP0102509A1, “Oxamid-acid derivatives, process for their preparation and therapeutical agents containing them” (BASF Aktiengesellschaft, priority 1982, dated 1984)

Tested on: passiven cutanen Anaphylaxie (PCA)
Assay: Passive cutaneous anaphylaxis (PCA) in rats, oral administration
Format: in vivo, Ratte
Settings: for ED50: read-out: Hemmung der PCA ED 50 %; for Hemmung der PCA R.W.: relative potency after oral administration, comparison compound A = 1.00
Description: Die antiallergische Wirkung wurde an Ratten getestet. Zur Prüfung wurde das Modell der passiven cutanen Anaphylaxie (PCA) verwendet: • Narkotisierte männliche Ratten (100 - 140 g) werden durch intradermale Injektion (rasierte Rückenhaut) von 0,1 ml eines Ovalbumin-Antiserums sensibilisiert. Nach einer Sensibilisierüngsdauer von ca. 48 h erfolgt die Behandlung (orale Applikation) mit unterschiedlichen Dosierungen (10 Tiere/Dosis) der Prüfsubstanzen. 15 bzw. 20 min nach der Behandlung wird eine Antigen/Evansblau-Mischung (10 mg/kg Ovalbumin in 2%iger Evansblau-Lösung) den Versuchstieren intravenös injiziert. 30 min später werden die Tiere getötet, die Rückenhaut abgezogen und auf der inneren Oberfläche der Durchmesser der kreisförmigen Blaufärbung gemessen. Die Größe der Farbflecke unbehandelter Kontrolltiere ist standardisierbar. Antiallergisch wirksame Substanzen verkleinern dosisabhängig den Durchmesser der Farbflecke. Als ED-50 % wird die Dosis angegeben, die im Vergleich zu medikamentös unbehandelten Kontrolltieren den Durchmesser der Farbflecke um 50 % herabsetzt.

[1] = oral administration, rat, dose that reduces the diameter of the dye spots by 50 % vs untreated controls

| Compound | ED50 [1] [mg/kg] | Hemmung der PCA R.W. | Hemmung der PCA R.W. (listed as Bsp. 2) | Antiallergische Wirkung (bis 100 mg/kg p.o., rat PCA) | Hemmung der PCA ED 50 % [1] | Hemmung der PCA R.W. (listed as Bsp. 3) |
| --- | --- | --- | --- | --- | --- | --- |
| CCOCCOC(=O)C(=O)Nc1cccc(NC(=O)C(=O)OCCOCC)c1 [Beispiel 2, N,N'-(1,3-Phenylen)-dioxamidsäure-2-ethoxyethylester] | 2.77 | 3.10 | 3,10 |  |  |  |
| O=C(O)c1cc(=O)c2c(OCC(O)COc3cccc4oc(C(=O)O)cc(=O)c34)cccc2o1 [Cromolyne, reference compound] | > 100 |  |  | unwirksam |  |  |
| N,N'-(1,3-Phenylen)-dioxamidsäure-2-butoxyethylester [Beispiel 3] |  | ca. 1.85 |  |  | ca. 4.64 mg/kg | 1,85 |
